These results are taken from US7851632B2, “Biphenyl compounds useful as muscarinic receptor antagonists” (Theravance, Inc., priority 2004, dated 2010).

In the experiment the test system is ACh-induced bronchoconstriction. The experiment can be described thus: Duration of bronchoprotection in guinea pig model of acetylcholine-induced bronchoconstriction. Conditions: inhalation, 1.5 hours post-dose. Type of experiment: in vivo. The procedure:
Determination of Duration of Bronchoprotection in Guinea Pig Model of Acetylcholine-Induced Bronchoconstriction
Groups of six male guinea pigs (Duncan-Hartley (HsdPoc:DH) Harlan, Madison, Wis.) weighing between 250 and 350 g were individually identified by cage cards. Throughout the study animals were allowed access to food and water ad libitum.
Test compounds were administered via inhalation over 10 minutes in a whole-body exposure dosing chamber (R&S Molds, San Carlos, Calif.). The dosing chambers were arranged so that an aerosol was simultaneously delivered to 6 individual chambers from a central manifold. Guinea pigs were exposed to an aerosol of a test compound or vehicle (WFI). […] This was measured gravimetrically by comparing pre- and post-nebulization weights of the filled nebulizer.
The bronchoprotective effects of test compounds administered via inhalation were evaluated using whole body plethysmography at 1.5, 24, 48 and 72 hours post-dose.
Forty-five minutes prior to the start of the pulmonary evaluation, each guinea pig was anesthetized with an intramuscular injection of ketamine (43.75 mg/kg), xylazine (3.50 mg/kg) and acepromazine (1.05 mg/kg). […] The depth of anesthesia was monitored and adjusted if the animal responded to pinching of its paw or if the respiration rate was greater than 100 breaths/minute. […]

Take `CN(CCN1CCC(OC(=O)Nc2ccccc2-c2ccccc2)CC1)C(=O)c1ccc(CNCc2ccc(O)cc2)cc1` [Example 1, Biphenyl-2-ylcarbamic Acid 1-[2-({4-[(4-Hydroxybenzylamino)methyl]benzoyl}methylamino)ethyl]piperidin-4-yl Ester]: the “PD2(50) for ACh-induced bronchoconstriction” value was “less than 200 μg/mL”.
